Laboratory results: patent US20130253056A1, “Continuous Administration of Levodopa and/or Dopa Decarboxylase Inhibitors and Compositions for Same” (NEURODERM, LTD., priority 2009, published 2013)
≈ marks a conversion by molar mass, not a printed value. Where “and” joins values, the source holds several entries; their conditions need not be identical. Identical values can stand only once. Counter-ions that a name gives are not always drawn. Like-named read-outs stand apart in the source and are kept apart here.

Assays:
[1] = Oral levodopa arginine and carbidopa arginine salts, PK in pigs; format: in vivo, female landrace×large white swine; conditions: for absorption as compared to LD/CD (Sinemet): oral 255/45 mg LDs/CDs (corresponding to 100/25 LD/CD); for PK of plasma LD and CD: oral enteric coated LDs/CDs
Protocol: Pigs were orally administered with 255/45 mg LD-arginine salt (LDs)/CD-arginine salt (CDs) to 30-35 kg pigs in gelatin coated or non-coated capsules (corresponding to 100/25 LD/CD). Plasma levels of LD and CD were measured by HPLC-ECD.

mice = assay: Skin sensitization, LLNA (local lymph node assay); conditions: for Median SI / SI / Ind. SI: LLNA mice; for Ind. SI: individual animals
Protocol: Sensitization was tested in mice using a LLNA (local lymph node assay) model for the detection of skin sensitization. […] In another LLNA study, LD Propyl and Benzyl Esters were tested in vehicle containing penetration enhancers.

[2] = Pig skin penetration of LDE by patch; format: in vivo, pigs; conditions: for LD P/WB (%) / Ratio C/P / LD blood cells (C) / Plasma (P) LD / Whole blood (WB) LD: 16 h after patch application; for Ratio C/P: blood cell fraction LD / plasma LD; for LD blood cells (C) / Plasma (P) LD / Whole blood (WB) LD / LD concentration in the blood cell fraction higher as compared to LDbzE: pigs; for LD concentration in the blood cell fraction higher as compared to LDbzE: patch
Protocol: Patch removal occurred at 24 h. […] Both whole blood and plasma were subjected to LD and 3-OMD analysis. […] LD formed in the RBC stay within the RBCs, and is further metabolized to 3-OMD, which is reallocated from the RBCs into the plasma.

[3] = Solubility in PBS, flask method; format: physicochemical; conditions: for solubility: phosphate buffered saline (PBS), aqueous buffer, thermodynamic from solid, read-out: Solubility of LDEs in PBS
Protocol: The “flask method” was used to determine the solubility of the test material in phosphate buffered saline (PBS) according to the OECD Guidelines for the Testing of Chemicals. Briefly, the test material was dissolved in PBS at a temperature slightly above the test temperature. When saturation is achieved, the solution is cooled to the test temperature and the mass concentration of the LD alkyl ester in the solution is determined quantitatively by measuring the absorbance of the solution at 280 nm and comparing the readings to a calibration curve of the relevant alkyl ester dissolved in PBS.

[4] = Intradermal delivery of LDE in pigs; format: in vivo
Protocol: LDEs were infused intradermally for 4 hours. […] Both whole blood and plasma samples were subjected to LD and LDE analysis.

[5] = Continuous subcutaneous administration of LD benzyl ester-HCl in pigs; format: in vivo; conditions: 15% aqueous solution pH 4.7, continuous SC 2 ml/24 h, oral carbidopa q8 h
Protocol: An aqueous solution of 15% LD benzyl ester-HCl, pH 4.7, was continuously administered subcutaneously via an insulin patch pump, 2 ml/24 h. Carbidopa was administered orally q8 h, starting 1 h prior to pump application.

[6] = Transdermal delivery through pig skin ex vivo, Franz cell delivery system; format: in vitro ADME, porcine; conditions: gel formulations, receiver samples 0, 16, 19 and 22 hours
Protocol: Gel formulations containing CDPE were prepared. Samples were collected from the receiver cell at time 0, 16, 19 and 22 hours after formulation application on to the skin. The amount of CD compounds in the receiver cell fluid was determined by a spectrophotometer at […].

[7] = biological target: T1, dopa-decarboxylases (DDC) (Sus scrofa, UniProt P80041); assay: Inhibition of dopa-decarboxylase activity in vitro; format: biochemical; conditions: porcine liver homogenate
T1 construct: DDC enzymes were obtained from porcine liver homogenate; from tissue; host or cells: porcine liver homogenate
T1 sequence (P80041 1-486): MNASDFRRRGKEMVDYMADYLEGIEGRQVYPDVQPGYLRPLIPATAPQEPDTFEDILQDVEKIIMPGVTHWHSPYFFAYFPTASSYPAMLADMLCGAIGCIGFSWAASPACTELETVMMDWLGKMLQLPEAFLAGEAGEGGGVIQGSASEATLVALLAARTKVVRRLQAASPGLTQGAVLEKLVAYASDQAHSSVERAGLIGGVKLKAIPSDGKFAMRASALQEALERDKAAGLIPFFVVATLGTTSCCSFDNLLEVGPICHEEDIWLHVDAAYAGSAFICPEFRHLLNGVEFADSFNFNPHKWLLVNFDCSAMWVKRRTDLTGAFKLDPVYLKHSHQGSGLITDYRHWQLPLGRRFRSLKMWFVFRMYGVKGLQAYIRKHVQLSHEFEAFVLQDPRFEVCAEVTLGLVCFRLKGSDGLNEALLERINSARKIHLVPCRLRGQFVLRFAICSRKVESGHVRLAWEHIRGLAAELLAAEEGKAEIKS
Protocol: DDC enzymes were obtained from porcine liver homogenate and their activity was measured by comparing LD concentrations with and without carbidopa propyl ester (CDPE). Liver homogenate preparation was based on the method described by Umezawa et al; (J. Antib. 1975, 28(12):947-52).
All samples were separated on high pressure liquid chromatography columns and the identity and concentration of L-DOPA and dopamine were determined by HP UV-HPLC analysis at […].

[8] = cited from earlier work
[9] = Continuous subcutaneous benserazide, levodopa PK in pigs; format: in vivo, female landrace×large white swine; conditions: continuous subcutaneous benserazide with oral L-dopa/Carbidopa
Protocol: (§1) Plasma levels of L-dopa were measured by HPLC-ECD.

[10] = Continuous subcutaneous carbidopa with or without entacapone, levodopa PK in pigs; format: in vivo, female landrace×large white swine; conditions: continuous SC 2% carbidopa with 2.5% entacapone, oral LD/CD
Protocol: as §1

[11] = Effect of pH on stability and hydrolysis of LDipE; format: physicochemical
Protocol: FIG. 19 indicates the effect of pH on stability and hydrolysis of LDipE after 10 days at 4 and 40° C.

[12] = for LD in Blood (ng/ml): LDiPE / LD in Blood (ng/ml): LD-d3 / Recovery from Blood (%): LD-d3: whole blood
Protocol: LDEs [isopropyl ester (LDipE), propyl ester (LDpE), ethyl ester (LDeE)] and LD-d3, were spiked into whole blood, incubated for 15 or 60 minutes at 37° C., and the plasma or whole blood concentration of LD, LD-d3 and LDipE were quantified using HPLC analysis as shown in Table 6 and FIG. 13.

[13] = T0 after spiking into whole blood
[14] = T15′ after spiking into whole blood

CC(Cc1ccc(O)c(O)c1)(NN)C(=O)O.N=C(N)NCCCC(N)C(=O)O (stereo not shown) [CDs]
absorption as compared to LD/CD (Sinemet) [1]: absorbed more rapidly and efficiently
PK of plasma LD and CD [1]: extended the PK of plasma LD and CD

CCOC(=O)[C@@H](N)Cc1ccc(O)c(O)c1 [LD Ethyl Ester, levodopa ethyl ester]
Median SI (mice; 1M (24%) in DMF): 10.8
SI (mice; 1M (24%) in DMF): 10.7
Ind. SI (mice; 1M (24%) in DMF): 13.31 and 8.22 and 14.45 and 6.65
LD P/WB (%) ([2]; listed as Ethyl): 13.4%
LD P/WB (%) ([2]; listed as ethyl): 13%
Ratio C/P [2]: 6.5
LD blood cells (C) [2]: 6418 ng/mL
Plasma (P) LD [2]: 989 ng/mL
Whole blood (WB) LD [2]: 7407 ng/mL
LD concentration in the blood cell fraction higher as compared to LDbzE [2]: 2.5 ×

N=C(N)NCCCC(N)C(=O)O.NC(Cc1ccc(O)c(O)c1)C(=O)O (stereo not shown) [LDs]
absorption as compared to LD/CD (Sinemet) [1]: absorbed more rapidly and efficiently
PK of plasma LD and CD [1]: extended the PK of plasma LD and CD

CCCCOC(=O)[C@@H](N)Cc1ccc(O)c(O)c1 [Butyl, levodopa butyl ester]
Solubility of LDEs in PBS [3]: 8.85 mg/mL

N[C@@H](Cc1ccc(O)c(O)c1)C(=O)OCc1ccccc1 [LD Benzyl Ester, levodopa benzyl ester]
hydrolysis to LD ([4]; intradermal infusion): hydrolyzed to LD faster than LD isopropyl ester
LD P/WB (%) [2]: 39.1%
LD P/WB (%) ([2]; listed as LDbzE): ~40%
LD blood cells (C) [2]: 2506 ng/mL
Whole blood (WB) LD [2]: 4115 ng/mL

Nc1ccc(N)cc1 [Positive Control, p-Phenylendiamine, reference compound]
Median SI (mice; 1%): 9.7
SI (mice; 1%): 10.1
Ind. SI (mice; 1%): 8.82 and 9.33 and 12.15 and 10.00

CCCOC(=O)[C@@H](N)Cc1ccc(O)c(O)c1 [LD Propyl Ester, levodopa propyl ester]
Solubility of LDEs in PBS [3]: 11.238 mg/mL
Median SI (mice; 1M (24%) in DMF): 3.5
SI (mice; 1M (24%) in DMF): 3.6
Ind. SI (mice; 1M (24%) in DMF): 2.32 and 4.55 and 5.12 and 2.44
Ind. SI (mice; 15% in Vehicle (penetration enhancers)): 36.42 and 7.70 and 38.60 and 3.53 and 31.68
Median SI (mice; 15% in Vehicle): 31.7
SI (mice; 15% in Vehicle): 23.6
change of SI when applied using the transdermal formulation (mice; compared with DMF): significantly increased
LD P/WB (%) ([2]; listed as Propyl): 24.7%
LD P/WB (%) ([2]; listed as propyl): 25%
Ratio C/P [2]: 3.0
Ratio C/P ([2]; listed as LDpE): 3
LD blood cells (C) [2]: 4820 ng/mL
Plasma (P) LD [2]: 1584 ng/mL
Whole blood (WB) LD [2]: 6404 ng/mL
LD concentration in the blood cell fraction higher as compared to LDbzE [2]: 1.9 ×

NC(Cc1ccc(O)c(O)c1)C(=O)OCc1ccccc1 (stereo not shown) [LD benzyl ester-HCl]
plasma concentrations of LD [5]: fluctuations of LD concentrations in the plasma coincided with oral carbidopa administration

CCCOC(=O)C(C)(Cc1ccc(O)c(O)c1)NN (stereo not shown) [CDPE, carbidopa propyl ester]
transdermal delivery through full thickness porcine skin [6]: penetrates the skin in an enhancer-dose dependent manner
inhibition of decarboxylation of L-dopa to dopamine [7]: inhibits the decarboxylation of L-dopa to dopamine, in a similar manner to carbidopa and benserazide

N[C@@H](Cc1ccc(O)c(O)c1)C(=O)O [Levodopa, L-3,4-dihydroxyphenylalanine]
solubility in alcohol, chloroform or ether [8]: practically insoluble
solubility in water [8]: only slightly soluble in water

CCCCCCCCOC(=O)[C@@H](N)Cc1ccc(O)c(O)c1 [Octyl, levodopa octyl ester]
solubility [3]: 0.031 mg/mL (≈ 0.1 mM)

NC(CO)C(=O)NNCc1ccc(O)c(O)c1O (stereo not shown) [benserazide]
pharmacokinetic profile of LD [9]: extended the pharmacokinetic profile of LD

CCN(CC)C(=O)/C(C#N)=C/c1cc(O)c(O)c([N+](=O)[O-])c1 [entacapone]
levels of 3-OMD [10]: effectively reduced
pharmacokinetics of levodopa [10]: did not further extend

CC(C)OC(=O)[C@@H](N)Cc1ccc(O)c(O)c1 [LD Isopropyl Ester, levodopa isopropyl ester]
solubility [3]: 17.3 mg/mL (≈ 72.2 mM)
Median SI (mice; 1M (24%) in DMF): 3.5
SI (mice; 1M (24%) in DMF): 4.2
Ind. SI (mice; 1M (24%) in DMF): 3.63 and 7.11 and 2.69 and 3.33
levels of LDipE in the RBC fraction ([4]; during 4 hours intradermal infusion): Significant levels of LDipE were found in the RBC fraction
pH of the most stable formulation tested ([11]; after 10 days at 4° C.): 5.1
pH of the most stable formulations tested ([11]; after 10 days at 40° C., listed as LDipE): 3.7 and 4.8
Recovery from Blood (%): LDiPE ([12]; 0 min): 45%
LD in Plasma (ng/ml): LDiPE ([12]; T0 after spiking of LDipE into whole blood): 0 ng/mL
LD in Plasma (ng/ml): LDiPE ([12]; T15′ after spiking of LDipE into whole blood): 0 ng/mL
LD in Blood (ng/ml): LDiPE ([12]; T0 after spiking of LDipE): 180 ng/mL
LD in Blood (ng/ml): LDiPE ([12]; T15′ after spiking of LDipE, 37° C.): 0 ng/mL
recovery at 15 min (in vitro): 0%
recovery at 15 min, 400 ng/ml (in vitro): 0%

[2H]c1c([2H])c(C[C@H](N)C(=O)O)c([2H])c(O)c1O [LD-d3]
LD in Plasma (ng/ml): LD-d3 [12, 13]: 533 ng/mL
Recovery from Plasma (%): LD-d3 [12, 13]: 67%
LD in Plasma (ng/ml): LD-d3 [12, 14]: 573 ng/mL
Recovery from Plasma (%): LD-d3 [12, 14]: 70% and 72%
LD in Blood (ng/ml): LD-d3 ([12]; T0 after spiking): 289 ng/mL
Recovery from Blood (%): LD-d3 ([12]; T0 after spiking): 72%
Recovery from Blood (%): LD-d3 ([12]; T15′ after spiking): 72%
LD in Blood (ng/ml): LD-d3 ([12]; T15′ after spiking, 37° C.): 288 ng/mL
